The values that follow come from patent US11131674B2, “Microarray compositions and methods of their use” (ADEPTRIX CORP., priority 2013, dated 2021).

For data set [1], the system named is MCF-7 cell line cells. Kind of data set: Whole cell MALDI TOF MS imaging of live cell microarray reacted with apoptosis-inducing compounds. Format: cell-based, human. Conditions: MCF-7 cells, 24 hours; etoposide 1 mM, camptothecin 10 μM, andrographolide 100 μM, 500 μM and 1 mM; FIG. 39E. On the procedure: The live cell microarray was fabricated as follows: a sterile 12-well silicone gasket was affixed to a top surface of a sterile APEX™ glass microwell plate, as schematically depicted in FIG. 15A and 1×DMEM cell culture medium supplemented with 10% FBS and 1% of Penicillin/Streptomycin was dispensed into each well of the fabricated 12-chamber cell culture device. Several hundred of MCF-7 cell line cells were seeded into each of the 12 wells and the cells were grown to […] density on the microwell plate within 48 hrs using a standard cell culture protocol. The fabricated live cell microarray thus comprised 12 reactive sites defined by the dimensions of the silicone gasket, each reactive site measuring approximately 7.5 mm×7.5 mm and containing approximately 5×10^5 live cells.
The live cell microarray fabricated as described in the previous Example was utilized to measure response of the MCF-7 cell line cells to several apoptosis-inducing compounds, which included etoposide, camptothecin and andrographolide. In addition, the live cell microarray was utilized to measure response of the MCF-7 cells to the same compound (andrographolide) provided in three different concentrations.
Stock solutions of the three compounds listed above were prepared in DMSO and stored at 4° C. or at −20° C. The compounds were diluted with the DMEM cell culture medium to the final concentrations of 1 mM (etoposide), 10 μM (camptothecin) and 100 μM, 500 μM and 1 mM (andrographolide) immediately before use. The original cell growth medium within the individual wells of the silicone gasket was removed by pipetting and replaced with approximately 250 μL of a cell growth medium supplemented with a specific compound. FIG. 39A schematically depicts a layout of the cell microarray. […]
The reacted cell microarray was measured by MALDI TOF MS in the linear mid-mass positive mode as described previously. […]

Data set [2] relates to MCF-7 cell line cells. Kind of data set: Optical imaging of cell density and morphology on composite microbead-microwell live cell microarray. It counts as cell-based, human. Conditions: MCF-7 cells, 24 hours, optical microscope, FIG. 41A/41B. An excerpt:
In this Example, the release of etoposide from the beads into the cell culture medium occurred primarily via diffusion mechanism, although other methods, such as photorelease of active compounds from individual beads may be also utilized due to the fact that the solid support used for the microarray fabrication is sufficiently transparent in the UV-visible range.
Optical imaging: the multi-well gasket was separated from the microwell array plate, the surface of the plate rinsed with 1×PBS buffer and the microwell plate was imaged using an optical microscope to determine the cell density and cell morphology. A representative image acquired from an area of the microwell plate, which contained the cells exposed to the drug-free DMEM medium, is shown in FIG. 41A. A representative image acquired from an area of the microwell plate, which contained the cells exposed to the etoposide-containing DMEM medium, is shown in FIG. 41B.

The test system of a further data set is MCF-7 cells. Kind of data set: Difference whole cell mass spectrometry for detection of spectral changes due to apoptosis. Format: cell-based, human. Conditions: 24 hrs incubation, FIG. 35. On the procedure:
The human breast cancer cell line MCF-7 cells were grown in Gibco® DMEM medium on a 6-well clear polystyrene cell culture plate (BD Falcon). The cells were grown according to the manufacturer's protocol to approximately 75% confluency. At this point several apoptosis-inducing compounds were added to the individual wells and the cells were further incubated for 24 hrs. Both live adherent cells and dead cells detached from the surface were collected from the individual wells of the cell culture plate and the cell viability count was performed on Countless® automated cell counter (Life Technologies) per manufacturer's protocol.
The cells for WCMS analysis were prepared as described in the previous examples. The cell concentration was approximately 1,000 cells per μL.
Whole cell MALDI TOF MS spectra were acquired from the control (untreated) and treated cell populations using instrument parameters described in the previous examples. […] The bottom spectrum represents a difference mass spectrum produced by subtracting the control spectrum from the Etoposide-treated spectrum.

Data set [3] is described as follows: Cell counting (Trypan blue, automated cell counter) on composite microbead-microwell live cell microarray. The conditions noted are these: human, MCF-7 cells on a microbead-microwell array plate.
Data set [4] concerns MCF-7 cell line cells. Described as above. Conditions: MCF-7 cells, 24 hours, cell growth medium supplemented with etoposide released from the ion exchange beads; Trypan blue.

Usually viability stands for a per cent measure of how many cells are alive, often set against a control.

Regarding `C=C1CC[C@@H]2[C@](C)(CO)[C@H](O)CC[C@@]2(C)[C@@H]1C/C=C1/C(=O)OC[C@H]1O` [andrographolide], the “intensity of peaks in the 7,891-7,977 m/z spectral region compared to untreated cells” value (“intensity of peaks … compared to untreated cells” for short) in the data set on MCF-7 cell line cells [1] was “significantly greater intensity”.

Regarding `CC[C@@]1(O)C(=O)OCc2c1cc1n(c2=O)Cc2cc3ccccc3nc2-1` [camptothecin], in the data set on MCF-7 cell line cells [1], the “intensity of peaks … compared to untreated cells” value is listed as “significantly greater intensity”.

`COc1cc([C@@H]2c3cc4c(cc3[C@@H](O[C@@H]3O[C@@H]5CO[C@@H](C)O[C@H]5[C@H](O)[C@H]3O)[C@H]3COC(=O)[C@H]23)OCO4)cc(OC)c1O` [etoposide]: in the data set with MCF-7 cell line cells [2], the “density of adherent cells, drug-free vs etoposide-containing DMEM medium” value was “significantly greater density of adherent cells was observed for the cells grown in the drug-free medium”. Also, in the data set with MCF-7 cell line cells [1], the “intensity of peaks … compared to untreated cells” value is on record as “significantly greater intensity”. The “difference mass spectrum, treated minus control” value with MCF-7 cells was “reveals multiple spectral features”. Besides, the viability at 24 h in data set [3] turned out to be 44%. Also, in the data set on MCF-7 cell line cells [4], the live cells is given as 2.1×10^5 and the total cells was 4.7×10^5.
